“Also recorded” adds a separate entry of the source. One block for each molecule: values may come before it.
Experiments:
Flk-1 [1] = biological target: T1, Flk-1 (Mus musculus, UniProt P35918, P25T); assay: Cellular Flk-1 assay: VEGF-stimulated Flk-1 receptor autophosphorylation, antiphosphotyrosine Western blot; assay type: cell-based; set-up: expressed in transfected cells; host or cells: NIH 3T3 (3T3 Flk-1 cell line); conditions: test concentration 100 μM, FIG. 17, NIH3T3 cells expressing Flk-1
T1 sequence (P35918 with tags, fused parts or gaps P25T limits assumed): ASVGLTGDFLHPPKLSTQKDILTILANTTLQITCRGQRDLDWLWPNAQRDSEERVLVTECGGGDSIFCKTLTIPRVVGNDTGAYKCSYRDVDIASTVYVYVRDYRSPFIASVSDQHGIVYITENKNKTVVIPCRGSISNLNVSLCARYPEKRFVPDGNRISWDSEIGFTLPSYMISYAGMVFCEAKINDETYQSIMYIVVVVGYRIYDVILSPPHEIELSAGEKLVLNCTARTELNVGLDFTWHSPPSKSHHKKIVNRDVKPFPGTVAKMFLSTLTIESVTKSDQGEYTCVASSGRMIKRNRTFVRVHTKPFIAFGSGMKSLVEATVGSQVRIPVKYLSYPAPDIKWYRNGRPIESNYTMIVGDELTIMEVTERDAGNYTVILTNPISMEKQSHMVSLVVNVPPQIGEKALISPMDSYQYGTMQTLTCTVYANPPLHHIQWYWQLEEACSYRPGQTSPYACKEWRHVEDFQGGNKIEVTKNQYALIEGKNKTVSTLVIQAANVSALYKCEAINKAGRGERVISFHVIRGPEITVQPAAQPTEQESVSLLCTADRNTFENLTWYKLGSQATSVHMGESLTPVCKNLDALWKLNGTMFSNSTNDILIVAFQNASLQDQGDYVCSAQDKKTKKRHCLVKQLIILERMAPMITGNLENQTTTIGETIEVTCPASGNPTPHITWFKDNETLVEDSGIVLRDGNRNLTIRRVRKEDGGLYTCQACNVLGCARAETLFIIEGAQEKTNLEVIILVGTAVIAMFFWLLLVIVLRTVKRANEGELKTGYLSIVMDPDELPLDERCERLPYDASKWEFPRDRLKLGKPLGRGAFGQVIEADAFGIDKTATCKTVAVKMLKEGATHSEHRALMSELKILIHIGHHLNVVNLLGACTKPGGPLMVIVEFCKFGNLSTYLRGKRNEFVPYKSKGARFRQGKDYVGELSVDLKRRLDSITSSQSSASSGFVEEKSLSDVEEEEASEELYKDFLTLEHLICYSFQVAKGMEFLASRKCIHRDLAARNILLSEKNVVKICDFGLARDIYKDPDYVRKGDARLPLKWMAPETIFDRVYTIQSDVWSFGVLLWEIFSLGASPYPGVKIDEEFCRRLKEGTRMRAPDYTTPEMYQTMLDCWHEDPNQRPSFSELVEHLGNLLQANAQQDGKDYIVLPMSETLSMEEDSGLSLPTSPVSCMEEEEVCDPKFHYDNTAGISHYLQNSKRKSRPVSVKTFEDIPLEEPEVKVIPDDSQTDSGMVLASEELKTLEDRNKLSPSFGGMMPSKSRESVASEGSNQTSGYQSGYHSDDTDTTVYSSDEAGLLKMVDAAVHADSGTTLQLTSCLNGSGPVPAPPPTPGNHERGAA
Protocol: FIG. 17. Inhibition of VEGF stipulatory activity of Flk-1. Test compounds and VEGF were co-incubated on cells expressing the Flk-1 receptor. The level of tyrosine phosphorylation was measured in a Western blot format using an antiphosphotyrosine antibody. […] (Compounds A7, A8, and A10 were toxic to these cells resulting in cell death.).
Organic compounds that modulate Flk-1 receptor mediated signal transduction can be assayed in a cellular Flk-1 assay wherein modulation of Flk-1 receptor autophosphorylation is measured using an antiphosphotyrosine antibody. In the example shown below, the results are analyzed using a Western blot of electrophoresed cell lysates. Levels of phosphorylation as be measured by other techniques known in the art.
NIH3T3 cells expressing high levels of Flk-1 were seeded in 12-well plates at 250,000 cells/well in DMEM+0.5% calf serum and incubated overnight at 37° C. plus or minus the test substance. […]
For the Western blot assay, forty microliters of saved supernatant per lane were loaded onto a 7.5% SDS-PAGE gel (10 lanes/gel, 1.5 mm thick) and run at 120 V until the dye reached the bottom of the gel. […] Protein bands were detected by soaking the membrane in ECL chemiluminescence system (Amersham Corp., prepared by mixing equal volumes of reagent 1 and 2) for 1 minute and then exposing the film for about 1-10 minutes.

Flk-1 [2] = biological target: T1, Flk-1; assay: 125I-VEGF competition binding to COS-1 cells transiently expressing Flk-1; set-up: the full-length Flk-1 cDNA was cloned into the mammalian expression vector PCMV; expressed in transfected cells; host or cells: COS-1 (transient, CMV-promoter vector); conditions: for competition with binding of 125I-VEGF: Flk-1 transfected COS-1 cells
[3] = biological target: murine Flk-1 receptor (fetal liver kinase 1), full length, wild type, 180 kD (mouse) (UniProt P35918); assay: cell-based or functional assay
Chain of murine Flk-1 receptor (fetal liver kinase 1), full length, wild type, 180 kD (mouse) (P35918 other isoform, or with tags, fused parts or gaps limits assumed): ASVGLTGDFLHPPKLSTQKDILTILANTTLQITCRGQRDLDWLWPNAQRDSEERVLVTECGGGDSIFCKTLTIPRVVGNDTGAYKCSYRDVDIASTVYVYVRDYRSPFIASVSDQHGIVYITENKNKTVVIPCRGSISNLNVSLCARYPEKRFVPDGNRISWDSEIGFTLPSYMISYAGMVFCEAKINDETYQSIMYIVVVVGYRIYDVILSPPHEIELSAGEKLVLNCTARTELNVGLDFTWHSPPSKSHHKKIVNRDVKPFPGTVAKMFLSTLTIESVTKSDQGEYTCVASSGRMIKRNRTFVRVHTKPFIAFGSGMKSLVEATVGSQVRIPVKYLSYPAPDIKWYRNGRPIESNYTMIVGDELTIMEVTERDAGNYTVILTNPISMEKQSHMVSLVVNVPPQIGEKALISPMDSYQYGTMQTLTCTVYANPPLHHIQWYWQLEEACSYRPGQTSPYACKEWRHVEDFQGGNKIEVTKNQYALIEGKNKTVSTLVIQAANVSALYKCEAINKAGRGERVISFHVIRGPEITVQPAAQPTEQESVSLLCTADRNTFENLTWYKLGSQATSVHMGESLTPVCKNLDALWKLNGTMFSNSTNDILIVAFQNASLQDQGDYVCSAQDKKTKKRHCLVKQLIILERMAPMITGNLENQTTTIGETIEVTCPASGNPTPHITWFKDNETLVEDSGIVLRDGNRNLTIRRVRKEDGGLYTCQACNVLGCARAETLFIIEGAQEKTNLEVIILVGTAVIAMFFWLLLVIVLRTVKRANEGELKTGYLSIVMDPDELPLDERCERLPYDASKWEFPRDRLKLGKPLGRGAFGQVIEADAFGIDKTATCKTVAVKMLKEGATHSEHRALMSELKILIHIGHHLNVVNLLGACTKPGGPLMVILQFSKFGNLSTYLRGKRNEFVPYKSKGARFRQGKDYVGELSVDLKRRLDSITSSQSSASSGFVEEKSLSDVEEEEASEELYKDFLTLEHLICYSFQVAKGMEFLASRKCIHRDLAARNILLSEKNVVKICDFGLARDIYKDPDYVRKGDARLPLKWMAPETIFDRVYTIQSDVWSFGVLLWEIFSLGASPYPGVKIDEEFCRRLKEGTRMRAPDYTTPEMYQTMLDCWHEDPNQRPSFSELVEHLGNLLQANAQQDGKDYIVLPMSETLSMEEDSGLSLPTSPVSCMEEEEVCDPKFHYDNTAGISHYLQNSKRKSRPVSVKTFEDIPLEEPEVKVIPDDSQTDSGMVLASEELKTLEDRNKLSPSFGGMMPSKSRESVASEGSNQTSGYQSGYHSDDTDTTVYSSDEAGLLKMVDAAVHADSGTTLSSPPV

Flk-1 [4] = biological target: T1, Flk-1; assay: VEGF-induced autophosphorylation of Flk-1 in COS cells; assay type: cell-based; set-up: expressed in transfected cells; dose or concentration left out as unconfirmed; conditions: COS1 cells transiently expressing Flk-1, stimulated with VEGF
Flk-1 [5] = biological target: T1, Flk-1; assay: [3H]thymidine incorporation (mitogenic response) in Flk-1-expressing NIH 3T3 cells; assay type: cell-based; set-up: the full-length Flk-1 cDNA was cloned into the mammalian expression vector PCMV; expressed in transfected cells; conditions: 3T3 Flk-1 cell line
From the text: The dominant-negative potential of Flk-1 TM was first examined by measuring its influence on the mitogenic response of Flk-1-expressing NIH 3T3 cells after superinfection with the Flk-1 TM virus.

[6] = biological target: T2, murine Flk-1 receptor (fetal liver kinase 1), full length, wild type, 180 kD (mouse, UniProt P35918 20-1345); assay: competition binding of unlabeled VEGF against 10 pM ^125I-VEGF on COS-1 cells expressing Flk-1, analysis by Munson and Rodbard
T2 construct: Full-length Flk-1 cDNA in pCMV, transiently expressed in COS-1 cells; also stably expressed in NIH 3T3 cells; also called Flk-1 RTK; wild type Flk-1
T2 sequence (P35918 other isoform, or with tags, fused parts or gaps limits assumed): as above
Protocol: FIGS. 9A and 9B. Flk-1 is a receptor for VEGF. […] The cells were lysed, Flk-1 receptor immunoprecipitated, and analyzed by polyacrylamide gel electrophoresis followed by autoradiography. Molecular size markers are indicated in kilodaltons. […] COS cells transiently expressing Flk-1 were removed from the plate and resuspended in binding medium (DMEM, 25 mM Hepes, 0.15% gelatin). […] The cells were washed twice with PBS/0.1% BSA and counted in a gamma counter.
Ligand binding experiments were performed as described previously (Schumacher, R. et al., 1991, J. Biol. Chem. 266: 19288-19295), COS-1 cells were grown in a 15-cm culture dish in DMEM for 48 h after transfection. Cells were then washed carefully with PBS and incubated with 5 ml of 25 mM EDTA in PBS for 10 min. Cells were then removed from the plate, washed once with binding buffer (DMEM, 25 mM HEPES, pH 7.5, 0.15% gelatin) and resuspended in 5 ml of binding buffer to determine the cell number. […] Data obtained were analyzed by the method of Munson, P. J. and Rodbard, D. (1980 Anal. Biochem. 107:220-235).

[7] = biological target: T3, Flk-1 TM, truncated transdominant-negative Flk-1 receptor mutant (amino acids 1 through 806), 130 kD (mouse, UniProt P35918 20-806); assay: ^125I-VEGF binding to 3T3 Flk-1/Flk-1 TM cells against the parental 3T3 Flk-1 cells
T3 construct: Lacks the 561 C-terminal amino acids of the intracellular kinase domain; keeps the transmembrane domain and 23 residues of the cytoplasmic domain; A BglII/HpaI linker with a stop codon (5' GTC ATG GAT CTT CGT TAA 3') may add or change a few C-terminal residues; Expressed in cells (COS, NIH 3T3); also called truncated Flk-1 receptor; pLXSN Flk-1 TM cl.1
T3 sequence (P35918 other isoform, or with tags, fused parts or gaps mutant): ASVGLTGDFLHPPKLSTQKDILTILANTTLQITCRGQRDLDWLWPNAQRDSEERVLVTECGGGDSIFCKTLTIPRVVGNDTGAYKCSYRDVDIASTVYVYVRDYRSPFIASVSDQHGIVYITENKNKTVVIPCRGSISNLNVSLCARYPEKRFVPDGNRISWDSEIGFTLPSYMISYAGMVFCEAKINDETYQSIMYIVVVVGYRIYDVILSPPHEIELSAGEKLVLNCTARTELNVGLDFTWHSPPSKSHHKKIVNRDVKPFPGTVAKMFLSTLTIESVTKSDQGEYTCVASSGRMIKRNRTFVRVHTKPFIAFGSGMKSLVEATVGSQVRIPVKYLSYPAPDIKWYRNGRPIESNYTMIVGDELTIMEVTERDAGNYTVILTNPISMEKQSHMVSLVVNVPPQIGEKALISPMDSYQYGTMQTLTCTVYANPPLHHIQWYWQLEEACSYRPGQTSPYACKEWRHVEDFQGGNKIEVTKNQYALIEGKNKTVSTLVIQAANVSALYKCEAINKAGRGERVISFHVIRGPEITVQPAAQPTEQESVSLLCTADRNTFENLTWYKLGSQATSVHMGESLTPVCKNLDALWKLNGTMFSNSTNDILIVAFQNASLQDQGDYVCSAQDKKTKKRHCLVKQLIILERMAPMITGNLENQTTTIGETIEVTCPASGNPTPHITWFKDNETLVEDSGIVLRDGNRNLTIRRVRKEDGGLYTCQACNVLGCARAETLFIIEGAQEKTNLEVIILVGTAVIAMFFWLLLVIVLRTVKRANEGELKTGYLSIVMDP

Molecule: c1ccc(-c2cnc3cc4ccccc4cc3n2)cc1 [Compound A14]
inhibition of VEGF-stimulated Flk-1 receptor phosphorylation (Flk-1 [1]): almost completely; also recorded: completely inhibited

Molecule: VEGF (preparation not specified) used for stimulation of cells (ligand)
[^3H] thymidine incorporation in the 3T3 Flk-1 cell line, EC50 [3]: 100 pM | [^3H] thymidine incorporation in the 3T3 Flk-1 cell line, concentration of maximal stimulation [3]: 500 pM

Molecule: vascular endothelial growth factor [VEGF]
tyrosine phosphorylation of the 180 kD Flk-1 receptor (Flk-1 [4]): significant induction | Kd (Flk-1 [2]; Flk-1 expressing COS-1 cells, 125I-VEGF, 15° C., 90 min): ~100 pM | competition with binding of 125I-VEGF (Flk-1 [2]): competed | EC50 (Flk-1 [5]): ~100 pM | concentration giving maximal stimulation of [3H] thymidine incorporation (Flk-1 [5]): 500 pM

Next, values leading:

competition with binding of 125I-VEGF (Flk-1 [2]): did not compete
Molecule: PDGF-BB: growth factor used as specificity control in 125I-VEGF competition binding [reference compound]

Kd [6]: ~100 pM
B1: unlabeled VEGF (164 amino acid form), partially purified from conditioned media of COS-1 cells transiently expressing VEGF (ligand, UniProt Q00731-2 27-190, looked up)
chain: APTTEGEQKSHEVIKFMDVYQRSYCRPIETLVDIFQEYPDEIEYIFKPSCVPLMRCAGCCNDEALECVPTSESNITMQIMRIKPHQSQHIGEMSFLQHSRCECRPKKDRTKPENHCEPCSERRKHLFVQDPQTCKCSCKNTDSRCKARQLELNERTCRCDKPRR
notes: Partially purified on heparin columns; also called unlabeled ligand

fold increase of cell surface receptors against the parental 3T3 Flk-1 line [7]: 6 fold
B2: ^125I-labeled recombinant human VEGF (ligand, UniProt P15692-4 27-191, looked up)
chain: APMAEGGGQNHHEVVKFMDVYQRSYCHPIETLVDIFQEYPDEIEYIFKPSCVPLMRCGGCCNDEGLECVPTEESNITMQIMRIKPHQGQHIGEMSFLQHNKCECRPKKDRARQENPCGPCSERRKHLFVQDPQTCKCSCKNTDSRCKARQLELNERTCRCDKPRR
modifications: radioiodinated (^125I) by the procedure of Hunter and Greenwood; positions not given
notes: also called iodinated VEGF
